Results on 16 molecules are retold here after patent US5561119A, “Glycosylated prodrugs, their method of preparation and their uses” (Laboratoires Hoechst, priority 1991, dated 1996).

The nature of data set [1]: incubation of 60 with α-galactosidase from unroasted coffee beans (HPLC). Type of data set: biochemical, [550, 560, 561]. Particulars: pH 6.8 (0.02M phosphate buffer), 37° C., 0.04 U/ml enzyme, 60 at 660 μg/ml.
Data set [2] in a line: Proliferation test (MTT reduction) in L1210 tumoral cells. Type of data set: cell-based, [569, 570, 571, 572, 573, 575]. Particulars: 72 hours, 37° C.
Data set [3] in a line: hydrolysis of acetates in vivo. To be noted: 6, 13 and 48a to 7, 14 and 48b respectively.
Data set [4] is described as follows: stability in plasma. Type of data set: in vitro ADME.
Data set [5] is described as follows: hydrolysis of 48b by α-galactosidase (HPLC). Type of data set: biochemical, [550, 552, 554]. Particulars: placental alpha-galactosidase; α-galactosidase from human placenta, 0.075M N-acetylgalactosamine, 37° C., pH 5 (0.02M phosphate buffer); read-out: half-life of hydrolysis of the glycoside (converted).
Data set [6] can be described thus: cleavability of glycosylated prodrugs by recombinant β-glucuronidase (reversed-phase HPLC). To be noted: for half-life: beta-glucuronidase; for t1/2 arm: time for conversion of 50% of the anthracycline/arm compound to active anthracycline, 37° C., 1 U/ml, pH 7.2 to 6.8.
Data set [7] in a line: cleavability of glycosylated prodrugs by α-galactosidase from coffee beans (reversed-phase HPLC). Type of data set: biochemical, [595, 596, 597]. To be noted: 37° C., 1 U/ml, pH 7.2 to 6.8.
For data set [8] the following is noted: beta-glucuronidase.

Values after ≈ are worked out from the molar mass of the structure shown.

As for `COc1cccc2c1C(=O)c1c(O)c3c(c(O)c1C2=O)C[C@@](O)(C(C)=O)C[C@@H]3O[C@H]1C[C@H](NC(=O)OCc2ccc(O)c(Cl)c2)[C@H](O)[C@H](C)O1` [deglycosidated derivative 60], the “detection of the deglycosidated derivative” value in data set [1] is reported as “not detected because of its high rate of disappearance”.
Turning to `COc1cccc2c1C(=O)c1c(O)c3c(c(O)c1C2=O)C[C@@](O)(C(C)=O)C[C@@H]3O[C@H]1C[C@H](NC(=O)OCc2ccc(O[C@H]3O[C@H](COC(C)=O)[C@H](OC(C)=O)[C@H](OC(C)=O)[C@H]3OC(C)=O)cc2)[C@H](O)[C@H](C)O1` [derivative 6, N-[4-(2,3,4,6-Tetra-O-acetyl-α-D-galactopyranosyl)benzyloxycarbonyl]daunorubicin], the IC50 in data set [2] is > 1 µg/mL. In data set [3], the “hydrolysis in vivo to the deacetylated prodrug” value (shortened to “hydrolysis in vivo”) is given as “hydrolyzed in vivo”.
With `COc1cccc2c1C(=O)c1c(O)c3c(c(O)c1C2=O)C[C@@](O)(C(C)=O)C[C@@H]3O[C@H]1C[C@H](NC(=O)OCc2ccc(O[C@H]3O[C@H](CO)[C@H](O)[C@H](O)[C@H]3O)cc2)[C@H](O)[C@H](C)O1` [derivative 7, N-[4-(α-D-Galactopyranosyl)benzyloxycarbonyl]daunorubicin], in data set [2], the half-inhibitory concentration (IC50) was > 1 µg/mL.
As to `COc1cccc2c1C(=O)c1c(O)c3c(c(O)c1C2=O)C[C@@](O)(C(C)=O)C[C@@H]3O[C@H]1C[C@H](NC(=O)OCc2ccccc2O[C@H]2O[C@H](COC(C)=O)[C@H](OC(C)=O)[C@H](OC(C)=O)[C@H]2OC(C)=O)[C@H](O)[C@H](C)O1` [derivative 13, N-[2-(2,3,4,6-Tetra-O-acetyl-α-D-galactopyranosyl)benzyloxycarbonyl]daunorubicin], the 50% inhibitory concentration (IC50) in data set [2] was > 1 µg/mL. Moreover, in data set [3], the “hydrolysis in vivo” value is given as “hydrolyzed in vivo”.
As to `COc1cccc2c1C(=O)c1c(O)c3c(c(O)c1C2=O)C[C@@](O)(C(C)=O)C[C@@H]3O[C@H]1C[C@H](NC(=O)OCc2ccccc2O[C@H]2O[C@H](CO)[C@H](O)[C@H](O)[C@H]2O)[C@H](O)[C@H](C)O1` [derivative 14, N-[2-(α-D-Galactopyranosyl)benzyloxycarbonyl]daunorubicin], the IC50 in data set [2] is > 1 µg/mL.
The same measure, in the same setting: the value for `COc1cccc2c1C(=O)c1c(O)c3c(c(O)c1C2=O)C[C@@](O)(C(C)=O)C[C@@H]3O[C@H]1C[C@H](NC(=O)OCc2ccc(O[C@@H]3O[C@H](C(=O)O)[C@@H](O)[C@H](O)[C@H]3O)cc2)[C@H](O)[C@H](C)O1` [derivative 22, N-(4-Hydroxybenzyloxycarbonyl)daunorubicin β-D-glucuronide] was > 10 µg/mL; that for `COc1cccc2c1C(=O)c1c(O)c3c(c(O)c1C2=O)C[C@@](O)(C(C)=O)C[C@@H]3O[C@H]1C[C@H](NC(=O)OCc2ccccc2O[C@@H]2O[C@H](C(=O)O)[C@@H](O)[C@H](O)[C@H]2O)[C@H](O)[C@H](C)O1` [derivative 27c, N-[2-((β-D-Glucopyranosyl)uronic acid)benzyloxycarbonyl]daunorubicin] was > 1 µg/mL.
Regarding `COc1cccc2c1C(=O)c1c(O)c3c(c(O)c1C2=O)C[C@@](O)(C(C)=O)C[C@@H]3O[C@H]1C[C@H](NC(=O)OCc2cc([N+](=O)[O-])ccc2O[C@H]2O[C@H](COC(C)=O)[C@H](OC(C)=O)[C@H](OC(C)=O)[C@H]2OC(C)=O)[C@H](O)[C@H](C)O1` [derivative 48a, N-[2-(2,3,4,6-Tetra-O-acetyl-α-D-galactopyranosyl)-5-nitrobenzyloxycarbonyl]daunorubicin], the half-inhibitory concentration (IC50) in data set [2] is > 10 µg/mL. The “hydrolysis in vivo” value in data set [3] is on record as “hydrolyzed in vivo”.
Regarding `COc1cccc2c1C(=O)c1c(O)c3c(c(O)c1C2=O)C[C@@](O)(C(C)=O)C[C@@H]3O[C@H]1C[C@H](NC(=O)OCc2cc([N+](=O)[O-])ccc2O[C@H]2O[C@H](CO)[C@H](O)[C@H](O)[C@H]2O)[C@H](O)[C@H](C)O1` [derivative 48b, N-[2-(α-D-Galactopyranosyl)-5-nitrobenzyloxycarbonyl]daunorubicin], in data set [4], the stability in plasma result is on record as “stable in plasma”. The half-inhibitory concentration (IC50) in data set [2] is > 1 µg/mL. Further, the half-life in data set [5] is 60 min.
With `COc1cccc2c1C(=O)c1c(O)c3c(c(O)c1C2=O)C[C@@](O)(C(C)=O)C[C@@H]3O[C@H]1C[C@H](NC(=O)OCc2cc([N+](=O)[O-])ccc2O[C@@H]2O[C@H](C(=O)O)[C@@H](O)[C@H](O)[C@H]2O)[C@H](O)[C@H](C)O1` [derivative 54c, N-[2-((β-D-Glucopyranosyl)uronic acid)-5-nitrobenzyloxycarbonyl]daunorubicin], in data set [6], the half-life was 41.4 min and the t1/2 arm is reported as 5,30 h.
For the molecule `COc1cccc2c1C(=O)c1c(O)c3c(c(O)c1C2=O)C[C@@](O)(C(C)=O)C[C@@H]3O[C@H]1C[C@H](NC(=O)OCc2ccc(O[C@H]3O[C@H](CO)[C@H](O)[C@H](O)[C@H]3O)c(Cl)c2)[C@H](O)[C@H](C)O1` [derivative 60, N-[3-Chloro-4-(α-D-galactopyranosyl)benzyloxycarbonyl]daunorubicin], the half-life in data set [7] (alpha-galactosidase, time for cleavage of 50% of the glycoside, read-out: t1/2 cleavage of the glycoside (converted)) is 1.2 min. For the same molecule, the t1/2 arm in data set [7] (time for conversion of 50% of the anthracycline/arm compound to active anthracycline) was < 0,08 h.
On to `COc1cccc2c1C(=O)c1c(O)c3c(c(O)c1C2=O)C[C@@](O)(C(C)=O)C[C@@H]3O[C@H]1C[C@H](NC(=O)OCc2ccc(O[C@@H]3O[C@H](C(=O)O)[C@@H](O)[C@H](O)[C@H]3O)c([N+](=O)[O-])c2)[C@H](O)[C@H](C)O1` [derivative 64c, N-(4-Hydroxy-3-nitrobenzyloxycarbonyl)daunorubicin β-D-glucuronide], for which, in data set [6], the half-life is 25.2 min and the t1/2 arm is listed as < 0,08 h.
`COc1cc(O[C@@H]2O[C@H](C(=O)O)[C@@H](O)[C@H](O)[C@H]2O)c(COC(=O)N[C@H]2C[C@H](O[C@H]3C[C@](O)(C(C)=O)Cc4c(O)c5c(c(O)c43)C(=O)c3c(OC)cccc3C5=O)O[C@@H](C)[C@H]2O)cc1[N+](=O)[O-]` [derivative 68c, N-[4-Methoxy-5-nitro-2-((β-D-glucopyranosyl)uronic acid)benzyloxycarbonyl]daunorubicin]: in data set [6], the half-life was 113 min and the t1/2 arm is 0,75 h.
For `COc1cccc2c1C(=O)c1c(O)c3c(c(O)c1C2=O)CC(O)(C(=O)CO)CC3OC1CC(NC(=O)OCc2ccc(OC3OC(C(=O)O)C(O)C(O)C3O)c([N+](=O)[O-])c2)C(O)C(C)O1` [derivative 70c, N-[4-hydroxy-3-nitro-benzyloxy-carbonyl) doxorubicin β-D-glucuronide], the “t1/2 cleavage of the glycoside” value in data set [8] is listed as 0,92 h.
Consider `COc1cccc2c1C(=O)c1c(O)c3c(c(O)c1C2=O)C[C@@](O)(C(C)=O)C[C@@H]3O[C@H]1C[C@H](NC(=O)OCc2cc(Cl)ccc2O[C@@H]2O[C@H](C(=O)O)[C@@H](O)[C@H](O)[C@H]2O)[C@H](O)[C@H](C)O1` [derivative 82c, N-[2-((β-D-glucopyranosyl)uronic acid)-5-chlorobenzyloxycarbonyl]daunorubicin], for which, in data set [6], the half-life was 244 min and the t1/2 arm is 12,00 h.
`COc1cccc2c1C(=O)c1c(O)c3c(c(O)c1C2=O)C[C@@](O)(C(=O)CO)C[C@@H]3O[C@H]1C[C@H](N)[C@H](O)[C@H](C)O1` [doxorubicin, reference compound]: in data set [2], the IC50 was 0.02 µg/mL (≈ 0.0368 µM).

The term IC50 denotes the point on the concentration scale where inhibition reaches its midpoint. A lower IC50 goes with greater potency in that assay.
